Molecular target: Intestinal-type alkaline phosphatase (Homo sapiens, UniProt P09923)
Assay: human intestinal alkaline phosphatase activators, dose response, biochemical, luminescence, uHTS hits (AID 463120)

Chain of Intestinal-type alkaline phosphatase (P09923 whole entry): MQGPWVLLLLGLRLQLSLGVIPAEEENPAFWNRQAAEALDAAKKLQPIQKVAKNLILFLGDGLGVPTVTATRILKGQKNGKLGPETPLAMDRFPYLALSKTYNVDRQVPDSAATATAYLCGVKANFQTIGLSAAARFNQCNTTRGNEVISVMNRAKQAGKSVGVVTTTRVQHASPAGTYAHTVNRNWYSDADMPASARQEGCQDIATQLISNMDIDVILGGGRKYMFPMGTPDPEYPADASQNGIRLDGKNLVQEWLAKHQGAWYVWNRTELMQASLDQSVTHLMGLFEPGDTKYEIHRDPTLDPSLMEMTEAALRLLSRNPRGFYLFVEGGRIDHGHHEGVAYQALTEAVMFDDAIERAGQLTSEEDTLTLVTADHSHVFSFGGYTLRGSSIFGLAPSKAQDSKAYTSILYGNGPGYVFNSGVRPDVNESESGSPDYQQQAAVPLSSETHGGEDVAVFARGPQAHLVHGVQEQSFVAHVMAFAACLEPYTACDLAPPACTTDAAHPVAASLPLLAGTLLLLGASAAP

EC50 | SMILES
12.1 µM | CCOC(=O)c1c(C)[nH]c(C(=O)N/N=C/C2C=C([N+](=O)[O-])C=CC2=O)c1C (stereo not drawn) [ethyl 2,4-dimethyl-5-[[[(E)-(3-nitro-6-oxocyclohexa-2,4-dien-1-ylidene)methyl]amino]carbamoyl]-1H-pyrrole-3-carboxylate]
13.6 µM | O=c1c2ccccc2nc(N=NCc2c(O)ccc3ccccc23)n1O [SMR000145705]
77 µM | Cn1c(C(C#N)C(=O)c2ccc(Br)s2)nc2ccccc21 (stereo not drawn) [MLS001167394]
13.4 µM | Cc1cc(Br)ccc1SCC(=O)OCC(=O)C(C#N)c1nc2ccccc2[nH]1 (stereo not drawn) [2-[(4-bromo-2-methylphenyl)thio]acetic acid [3-cyano-3-(1,3-dihydrobenzimidazol-2-ylidene)-2-oxopropyl] ester]
8.3 µM | Cc1c(C(=O)NN=Cc2ccc(O)cc2O)[nH][nH]c1=O
> 100 µM | Cc1ccc(O)c(N=CCC(=O)c2ccc(F)cc2)c1 [MLS001183581]
9.21 µM | O=C(Nn1c(O)csc1=S)C(=O)Nn1c(O)csc1=S [SMR000349781]
> 100 µM | COc1cccc(CN=Nc2nn3cnnc3c3ccccc23)c1O
> 100 µM | COc1ccc(Cc2cc(O)n(-c3ccc(C)cc3)c2O)cc1 [3-(4-Methoxy-benzyl)-1-p-tolyl-pyrrolidine-2,5-dione]
12.3 µM | C=c1[nH]n(-c2nc3ccccc3[nH]2)c(=O)c1=CN(C)C [(4E)-2-(1H-benzimidazol-2-yl)-4-(dimethylaminomethylidene)-5-methyl-pyrazol-3-one]
8.21 µM | O=Nc1[nH]c(=O)c(CC(=O)c2ccccc2)nc1NO [SMR000539633]
6.62 µM | CCc1ccc(CN=Nc2ncnc3nc[nH]c23)cc1 [MLS000419199]
6.53 µM | COc1cccc(C=NNC(=O)c2[nH][nH]c(=O)c2C)c1O [N'-[(E)-(5-methoxy-6-oxidanylidene-cyclohexa-2,4-dien-1-ylidene)methyl]-4-methyl-5-oxidanylidene-1,4-dihydropyrazole-3-carbohydrazide]
